Earlier results as cited in patent US8541630B2, “Process for producing dimethyl ether from methanol” (China Petroleum & Chemical Corporation, priority 2008, dated 2013).
Read-outs that look alike come from different tables or passages of the source.

For `COC` [DME, Dimethyl ether], the Solubility (solvent Acetone (25° C.)) is given as 11.83 wt %, the Solubility (solvent Benzene (25° C.)) is given as 15.29 wt % and the Solubility (solvent CCl4 (25° C.)) is given as 16.33 wt %. For the same compound, the Solubility (solvent Chlorobenzene (106 kPa, 25° C.)) was 18.56 wt %, the Solubility (solvent Gasoline, 0° C.) was 19 wt % and the Solubility (solvent Gasoline, 25° C.) was 7 wt %. The Solubility (solvent Gasoline, −40° C.) was 64 wt %, the Solubility (solvent Methyl acetate (93.86 kPa, 25° C.)) was 11.1 wt % and the Solubility (solvent Water (24° C.)) was 35.3 wt %.
